The values that follow come from patent publication US20190127366A1 (LifeSci Pharmaceuticals, Inc., priority 2015, published 2019).

Molecules are shown by their SMILES.

The target of this assay is T1, human complement factor D (Homo sapiens, UniProt P00746).
T1 construct: purchased R&D Systems 1824-SE
T1 sequence (P00746 26-253): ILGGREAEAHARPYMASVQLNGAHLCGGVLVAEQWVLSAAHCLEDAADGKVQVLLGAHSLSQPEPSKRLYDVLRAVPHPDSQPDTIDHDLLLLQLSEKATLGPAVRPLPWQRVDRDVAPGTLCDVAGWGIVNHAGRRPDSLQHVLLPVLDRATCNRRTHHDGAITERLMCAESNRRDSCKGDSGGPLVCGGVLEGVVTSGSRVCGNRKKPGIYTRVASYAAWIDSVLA
The assay can be described thus: In vitro enzyme inhibition (Z-Lys-SBzl/DTNB absorbance assay). To be noted: Complement Factor D (R&D Systems), substrate Z-Lys-SBzl, A405 nm; read-out: CFD IC50. The assay is classed as biochemical. In short, it runs like this:
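Factor D (6.25 ng/μL before addition) preincubated 5 min RT with compound (8 points from 50 μM, 6-fold, 0.5% DMSO final) in 50 mM Tris/HCl pH 7.5, 1 M NaCl, then Z-Lys-SBzl/DTNB added (200 μM each before addition). A405 read kinetically every 30 s for 60 min; IC50 from variable-slope fit, controls with and without enzyme.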
`NC(=O)c1nn(CC(=O)N2[C@H](C(=O)NCc3cccc(Cl)n3)C[C@@H]3CCC[C@@H]32)c2ccccc12` [Example 160, 1-(2-((2S,3aS,6aS)-2-(((6-chloropyridin-2-yl)methyl)carbamoyl)hexahydrocyclopenta[b]pyrrol-1(2H)-yl)-2-oxoethyl)-1H-indazole-3-carboxamide]: the IC50 (in general, the midpoint of a concentration-inhibition curve) is 1000 to 10000 nM. For `NC(=O)c1nn(CC(=O)N2[C@H](C(=O)Nc3cncc(Cl)c3)C[C@@H]3CCC[C@@H]32)c2ccccc12` [Example 161, 1-(2-((2S,3aS,6aS)-2-((5-chloropyridin-3-yl)carbamoyl)hexahydrocyclopenta[b]pyrrol-1(2H)-yl)-2-oxoethyl)-1H-indazole-3-carboxamide] the value was 1000 to 10000 nM; for `NC(=O)c1nn(CC(=O)N2[C@H](C(=O)Nc3cccc(Cl)n3)C[C@@H]3CCC[C@@H]32)c2ccc(C3CC3)cc12` [Example 162, 1-(2-((2S,3aS,6aS)-2-((6-chloropyridin-2-yl)carbamoyl)hexahydrocyclopenta[b]pyrrol-1(2H)-yl)-2-oxoethyl)-5-cyclopropyl-1H-indazole-3-carboxamide], 100 to 1000 nM; for `NC(=O)c1nn(CC(=O)N2[C@H](C(=O)Nc3ccnc(Cl)c3)C[C@@H]3CCC[C@@H]32)c2ccccc12` [Example 163, 1-(2-((2S,3aS,6aS)-2-((2-chloropyridin-4-yl)carbamoyl)hexahydrocyclopenta[b]pyrrol-1(2H)-yl)-2-oxoethyl)-1H-indazole-3-carboxamide], > 10000 nM.

For the compound `NC(=O)c1nn(CC(=O)N2[C@H](C(=O)Nc3cccc(Br)n3)C[C@@H]3CCC[C@@H]32)c2ccccc12` [Example 164, 1-(2-((2S,3aS,6aS)-2-((6-bromopyridin-2-yl)carbamoyl)hexahydrocyclopenta[b]pyrrol-1(2H)-yl)-2-oxoethyl)-1H-indazole-3-carboxamide], the IC50 lay within 100 to 1000 nM.

With `Cc1ccc2c(c1)c(C(N)=O)nn2CC(=O)N1[C@H](C(=O)NCc2cccc(Cl)c2F)C[C@@H]2CCC[C@@H]21` [Example 165, 1-(2-((2S,3aS,6aS)-2-((3-chloro-2-fluorobenzyl)carbamoyl)hexahydrocyclopenta[b]pyrrol-1(2H)-yl)-2-oxoethyl)-5-methyl-1H-indazole-3-carboxamide], the IC50 fell in the range of 100 to 1000 nM.

With `NC(=O)c1nn(CC(=O)N2[C@H](C(=O)NCc3cccc(Cl)c3F)C[C@@H]3CCC[C@@H]32)c2ccc(F)cc12` [Example 166, 1-(2-((2S,3aS,6aS)-2-((3-chloro-2-fluorobenzyl)carbamoyl)hexahydrocyclopenta[b]pyrrol-1(2H)-yl)-2-oxoethyl)-5-fluoro-1H-indazole-3-carboxamide], the IC50 lay within 100 to 1000 nM.

`COc1ccc2c(c1)c(C(N)=O)nn2CC(=O)N1[C@H](C(=O)Nc2cccc(Cl)n2)C[C@@H]2CCC[C@@H]21` [Example 170, 1-(2-((2S,3aS,6aS)-2-((6-chloropyridin-2-yl)carbamoyl)hexahydrocyclopenta[b]pyrrol-1(2H)-yl)-2-oxoethyl)-5-methoxy-1H-indazole-3-carboxamide]: the IC50 fell in the range of 100 to 1000 nM. For `NC(=O)c1nn(CC(=O)N2[C@@H](C(=O)Nc3cccc(Cl)n3)C[C@H]3CCC[C@H]32)c2ccccc12` [Example 171, 1-(2-((2R,3aR,6aR)-2-((6-chloropyridin-2-yl)carbamoyl)hexahydrocyclopenta[b]pyrrol-1(2H)-yl)-2-oxoethyl)-1H-indazole-3-carboxamide] the value was > 10000 nM; for `NC(=O)c1nn(CC(=O)N2[C@H](C(=O)Nc3cccc(Cl)n3)C[C@@H]3CCC[C@@H]32)c2cc(F)ccc12` [Example 172, 1-(2-((2S,3aS,6aS)-2-((6-chloropyridin-2-yl)carbamoyl)hexahydrocyclopenta[b]pyrrol-1(2H)-yl)-2-oxoethyl)-6-fluoro-1H-indazole-3-carboxamide 2,2,2-trifluoroacetate], 100 to 1000 nM.

In the case of `NC(=O)c1nn(CC(=O)N2[C@H](C(=O)Nc3cccc(Cl)n3)C[C@@H]3CCC[C@@H]32)c2ccc([N+](=O)[O-])cc12` [Example 173, 1-(2-((2S,3aS,6aS)-2-((6-chloropyridin-2-yl)carbamoyl)hexahydrocyclopenta[b]pyrrol-1(2H)-yl)-2-oxoethyl)-5-nitro-1H-indazole-3-carboxamide], the IC50 fell in the range of 1000 to 10000 nM.

Turning to `N#Cc1ccc2c(c1)c(C(N)=O)nn2CC(=O)N1[C@H](C(=O)Nc2cccc(Cl)n2)C[C@@H]2CCC[C@@H]21` [Example 174, 1-(2-((2S,3aS,6aS)-2-((6-chloropyridin-2-yl)carbamoyl)hexahydrocyclopenta[b]pyrrol-1(2H)-yl)-2-oxoethyl)-5-cyano-1H-indazole-3-carboxamide], the 50% inhibitory concentration (IC50) lay within 100 to 1000 nM.

In the case of `COc1ccc2c(c1)c(C(C)=O)nn2CC(=O)N1[C@H](C(=O)Nc2cccc(Cl)n2)C[C@@H]2CCC[C@@H]21` [Example 175, (2S,3aS,6aS)-1-(2-(3-acetyl-5-methoxy-1H-indazol-1-yl)acetyl)-N-(6-chloropyridin-2-yl)octahydrocyclopenta[b]pyrrole-2-carboxamide], the IC50 is 100 to 1000 nM.

For the compound `CC(=O)c1nn(CC(=O)N2[C@H](C(=O)Nc3cccc(Cl)n3)C[C@@H]3CCC[C@@H]32)c2ccc(C)cc12` [Example 176, (2S,3aS,6aS)-1-(2-(3-acetyl-5-methyl-1H-indazol-1-yl)acetyl)-N-(6-chloropyridin-2-yl)octahydrocyclopenta[b]pyrrole-2-carboxamide], the 50% inhibitory concentration (IC50) lay within 100 to 1000 nM.

As to `NC(=O)c1nn(CC(=O)N2[C@H](C(=O)Nc3cccc(Cl)n3)C[C@@H]3CCC[C@@H]32)c2cnccc12` [Example 177, 1-(2-((2S,3aS,6aS)-2-((6-chloropyridin-2-yl)carbamoyl)hexahydrocyclopenta[b]pyrrol-1(2H)-yl)-2-oxoethyl)-1H-pyrazolo[3,4-c]pyridine-3-carboxamide], the IC50 lay within 100 to 1000 nM. In the case of `CC(=O)c1nn(CC(=O)N2[C@H](C(=O)Nc3cccc(Cl)n3)C[C@@H]3CCC[C@@H]32)c2ccc(Cl)cc12` [Example 178, (2S,3aS,6aS)-1-(2-(3-acetyl-5-chloro-1H-indazol-1-yl)acetyl)-N-(6-chloropyridin-2-yl)octahydrocyclopenta[b]pyrrole-2-carboxamide], the IC50 lay within 100 to 1000 nM. As for `CC(=O)c1nn(CC(=O)N2[C@H](C(=O)Nc3cccc(Cl)n3)C[C@@H]3CCC[C@@H]32)c2ccccc12` [Example 180, (2S,3aS,6aS)-1-(2-(3-acetyl-1H-indazol-1-yl)acetyl)-N-(6-chloropyridin-2-yl)octahydrocyclopenta[b]pyrrole-2-carboxamide], the IC50 lay within 100 to 1000 nM. In the case of `CC(O)c1nn(CC(=O)N2[C@H](C(=O)Nc3cccc(Cl)n3)C[C@@H]3CCC[C@@H]32)c2ccccc12` (stereo partly drawn) [Example 181, (2S,3aS,6aS)-N-(6-chloropyridin-2-yl)-1-(2-(3-(1-hydroxyethyl)-1H-indazol-1-yl)acetyl)octahydrocyclopenta[b]pyrrole-2-carboxamide], the IC50 fell in the range of 1000 to 10000 nM.

In the case of `NC(=O)c1nn(CC(=O)N2[C@H](C(=O)Nc3cccc(Cl)n3)C[C@@H]3CCC[C@@H]32)c2cc(Cl)ccc12` [Example 182, 6-chloro-1-(2-((2S,3aS,6aS)-2-((6-chloropyridin-2-yl)carbamoyl)hexahydrocyclopenta[b]pyrrol-1(2H)-yl)-2-oxoethyl)-1H-indazole-3-carboxamide], the IC50 fell in the range of 100 to 1000 nM.
